The structures appear in SMILES notation. Where a SMILES comes first, the peptide text is derived from it. [ ]: non-standard residue; d: D form. Pro(3S-OH) = O=C(O)[C@H]1NCC[C@@H]1O; Cha = N[C@@H](CC1CCCCC1)C(=O)O; aThr = C[C@H](O)[C@H](N)C(=O)O; Agp = N=C(N)NC[C@H](N)C(=O)O; Chg = N[C@H](C(=O)O)C1CCCCC1; Tle = CC(C)(C)[C@H](N)C(=O)O; dDab = NCC[C@@H](N)C(=O)O; hSer = N[C@@H](CCO)C(=O)O; Orn = NCCC[C@H](N)C(=O)O; Dab = NCC[C@H](N)C(=O)O; Nva = CCC[C@H](N)C(=O)O; Dap = NC[C@H](N)C(=O)O

This data set concerns human red blood cells (hRBC). In words: Hemolysis of human red blood cells. The class given is cell-based. The conditions noted are these: red cells of human, 1 h, 100. In outline:
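Washed fresh human erythrocytes (20% v/v, about 0.9×10^9 cells/ml final) incubated with peptide at 100 μg/ml for 1 h at 37° C with shaking. Supernatant OD540 read; hemolysis expressed relative to 2.5% Triton X-100 (100%) and PBS with 0.001% acetic acid (0%).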
As for `CC(C)C[C@@H]1NC(=O)[C@@H]2[C@@H](O)CCN2C(=O)[C@H]2CCCN2C(=O)[C@H](CO)NC(=O)[C@H](C)NC(=O)[C@H](C(C)(C)C)NC(=O)[C@H](CCN)NC(=O)[C@H](Cc2c[nH]c3ccccc23)NC(=O)[C@H](CCN)NC(=O)[C@@H](CCN)NC(=O)[C@H](CCCN)NC(=O)[C@H](CCN)NC(=O)[C@H](Cc2ccc(O)cc2)NC(=O)[C@H](CO)NC1=O` [compound 57] (cyclo(AS[dP][Pro(3S-OH)]LSY[Dab][Orn][dDab][Dab]W[Dab][Tle])), the “Hemolysis at 100 μg/ml” value amounted to 1%. The result for `CC[C@H](C)[C@@H]1NC(=O)[C@@H]2CCCN2C(=O)[C@H]2CCCN2C(=O)[C@H](CO)NC(=O)[C@H](C)NC(=O)[C@H](C(C)(C)C)NC(=O)[C@H](CCN)NC(=O)[C@H](Cc2c[nH]c3ccccc23)NC(=O)[C@H](CCN)NC(=O)[C@H](CCN)NC(=O)[C@H](CCCN)NC(=O)[C@H](CCN)NC(=O)[C@H](CC2CCCCC2)NC(=O)[C@H](CO)NC1=O` [compound 142] (cyclo(IS[Cha][Dab][Orn][Dab][Dab]W[Dab][Tle]AS[dP]P)) reads 1%. Consider `CC[C@H](C)[C@@H]1NC(=O)[C@@H]2CCCN2C(=O)[C@H]2CCCN2C(=O)[C@H](CO)NC(=O)[C@H](C)NC(=O)[C@H](C(C)(C)C)NC(=O)[C@H](CCN)NC(=O)[C@H](Cc2c[nH]c3ccccc23)NC(=O)[C@H](CCN)NC(=O)[C@@H](CCN)NC(=O)[C@H](CCCN)NC(=O)[C@H](CCN)NC(=O)[C@H](Cc2ccc(O)cc2)NC(=O)[C@H](CN)NC1=O` [compound 146] (cyclo(I[Dap]Y[Dab][Orn][dDab][Dab]W[Dab][Tle]AS[dP]P)), for which the “Hemolysis at 100 μg/ml” value worked out at 0%.

`CC[C@H](C)[C@@H]1NC(=O)[C@@H]2CCCN2C(=O)[C@H]2CCCN2C(=O)[C@H](CO)NC(=O)[C@H](C)NC(=O)[C@H](C(C)(C)C)NC(=O)[C@H](CCN)NC(=O)[C@H](Cc2c[nH]c3ccccc23)NC(=O)[C@H](CCN)NC(=O)[C@@H](CCN)NC(=O)[C@H](CCCN)NC(=O)[C@H](CCN)NC(=O)[C@H](Cc2ccc(O)cc2)NC(=O)[C@H]([C@H](C)O)NC1=O` [compound 86] (cyclo(I[aThr]Y[Dab][Orn][dDab][Dab]W[Dab][Tle]AS[dP]P)): the “Hemolysis at 100 μg/ml” value was 1%.

`C[C@@H]1NC(=O)[C@H](C(C)(C)C)NC(=O)[C@H](CCN)NC(=O)[C@H](Cc2c[nH]c3ccccc23)NC(=O)[C@H](CCN)NC(=O)[C@H](CCN)NC(=O)[C@H](CCCN)NC(=O)[C@H](CCN)NC(=O)[C@H](Cc2ccc(O)cc2)NC(=O)[C@H](CO)NC(=O)[C@H](Cc2c[nH]c3ccccc23)NC(=O)[C@@H]2CCCN2C(=O)[C@H]2CCCN2C(=O)[C@H](CO)NC1=O` [compound 74] (cyclo(WSY[Dab][Orn][Dab][Dab]W[Dab][Tle]AS[dP]P)): the “Hemolysis at 100 μg/ml” value is given as 0%.

For the compound `CC(C)C[C@@H]1NC(=O)[C@@H]2CCCN2C(=O)[C@H]2CCCN2C(=O)[C@H](CO)NC(=O)[C@H](C)NC(=O)[C@H](C(C)(C)C)NC(=O)[C@H](CCO)NC(=O)[C@H](Cc2c[nH]c3ccccc23)NC(=O)[C@H](CCN)NC(=O)[C@@H](CCN)NC(=O)[C@H](CCCN)NC(=O)[C@H](CCN)NC(=O)[C@H](Cc2ccc(O)cc2)NC(=O)[C@H](CO)NC1=O` [compound 37] (cyclo(LSY[Dab][Orn][dDab][Dab]W[hSer][Tle]AS[dP]P)), the “Hemolysis at 100 μg/ml” value was found to be 1%.

Take `C[C@@H]1NC(=O)[C@H](Cc2c[nH]c3ccccc23)NC(=O)[C@@H]2CCCN2C(=O)[C@H]2CCCN2C(=O)[C@H](CO)NC(=O)[C@H](C)NC(=O)[C@H](C(C)(C)C)NC(=O)[C@H](CCN)NC(=O)[C@H](Cc2c[nH]c3ccccc23)NC(=O)[C@H](CCN)NC(=O)[C@@H](CCN)NC(=O)[C@H](CCCN)NC(=O)[C@H](CCN)NC(=O)[C@H](Cc2c[nH]c3ccccc23)NC1=O` [compound 75] (cyclo(WAW[Dab][Orn][dDab][Dab]W[Dab][Tle]AS[dP]P)): the “Hemolysis at 100 μg/ml” value was 1%.

With `CC(C)C[C@@H]1NC(=O)[C@@H]2CCCN2C(=O)[C@H]2CCCN2C(=O)[C@H](CO)NC(=O)[C@H](C)NC(=O)[C@H](C2CCCCC2)NC(=O)[C@H](CCN)NC(=O)[C@H](Cc2c[nH]c3ccccc23)NC(=O)[C@H](CCN)NC(=O)[C@@H](CCN)NC(=O)[C@H](CCCN)NC(=O)[C@H](CCN)NC(=O)[C@H](C(C)(C)C)NC(=O)[C@H](CO)NC1=O` [compound 137] (cyclo(LS[Tle][Dab][Orn][dDab][Dab]W[Dab][Chg]AS[dP]P)), the “Hemolysis at 100 μg/ml” value was determined as 4%. The result for `CCC[C@@H]1NC(=O)[C@@H]2CCCN2C(=O)[C@H]2CCCN2C(=O)[C@H](CO)NC(=O)[C@H](C)NC(=O)[C@H](C2CCCCC2)NC(=O)[C@H](CCN)NC(=O)[C@H](Cc2c[nH]c3ccccc23)NC(=O)[C@H](CCN)NC(=O)[C@@H](CCN)NC(=O)[C@H](CCCN)NC(=O)[C@H](CCN)NC(=O)[C@H](Cc2ccc(O)cc2)NC(=O)[C@H](CO)NC1=O` [compound 89] (cyclo([Nva]SY[Dab][Orn][dDab][Dab]W[Dab][Chg]AS[dP]P)) reads 0%. The result for `C[C@@H]1NC(=O)[C@H](C(C)(C)C)NC(=O)[C@H](CCN)NC(=O)[C@H](Cc2c[nH]c3ccccc23)NC(=O)[C@H](CCN)NC(=O)[C@@H](CCN)NC(=O)[C@H](CCCN)NC(=O)[C@H](CCN)NC(=O)[C@H](Cc2c[nH]c3ccccc23)NC(=O)[C@H](CN)NC(=O)[C@H](Cc2c[nH]c3ccccc23)NC(=O)[C@@H]2CCCN2C(=O)[C@H]2CCCN2C(=O)[C@H](CO)NC1=O` [compound 79] (cyclo(W[Dap]W[Dab][Orn][dDab][Dab]W[Dab][Tle]AS[dP]P)) reads 1%. On to `C[C@@H]1NC(=O)[C@H](CC2CCCCC2)NC(=O)[C@H](CCN)NC(=O)[C@H](Cc2c[nH]c3ccccc23)NC(=O)[C@H](CCN)NC(=O)[C@@H](CCN)NC(=O)[C@H](CCCCN)NC(=O)[C@H](CCN)NC(=O)[C@H](Cc2ccc(O)cc2)NC(=O)[C@H](C)NC(=O)[C@H](Cc2c[nH]c3ccccc23)NC(=O)[C@@H]2CCCN2C(=O)[C@H]2CCCN2C(=O)[C@H](CO)NC1=O` [compound 76] (cyclo(WAY[Dab]K[dDab][Dab]W[Dab][Cha]AS[dP]P)), for which the “Hemolysis at 100 μg/ml” value came to 2%.

With `CC(C)C[C@@H]1NC(=O)[C@@H]2CCCN2C(=O)[C@H]2CCCN2C(=O)[C@H](CO)NC(=O)[C@H](C)NC(=O)[C@H](C(C)(C)C)NC(=O)[C@H](CCN)NC(=O)[C@H](Cc2c[nH]c3ccccc23)NC(=O)[C@H](CCN)NC(=O)[C@@H](CCN)NC(=O)[C@H](CCCN)NC(=O)[C@H](CN)NC(=O)[C@H](Cc2ccc(O)cc2)NC(=O)[C@H](CO)NC1=O` [compound 91] (cyclo(LSY[Dap][Orn][dDab][Dab]W[Dab][Tle]AS[dP]P)), the “Hemolysis at 100 μg/ml” value came out at 0%. The result for `CC(C)C[C@@H]1NC(=O)[C@@H]2CCCN2C(=O)[C@H]2CCCN2C(=O)[C@H](CO)NC(=O)[C@H](C)NC(=O)[C@H](C(C)(C)C)NC(=O)[C@H](CCN)NC(=O)[C@H](Cc2c[nH]c3ccccc23)NC(=O)[C@H](CCN)NC(=O)[C@@H](CCN)NC(=O)[C@H](CCCN)NC(=O)[C@H](CCN)NC(=O)[C@H](Cc2ccc(O)cc2)NC(=O)[C@H](CO)NC1=O` [compound 36] (cyclo(LSY[Dab][Orn][dDab][Dab]W[Dab][Tle]AS[dP]P)) reads 1%. Then `CC(C)C[C@@H]1NC(=O)[C@@H]2CCCN2C(=O)[C@H]2CCCN2C(=O)[C@H](CO)NC(=O)[C@H](C)NC(=O)[C@H](C(C)(C)C)NC(=O)[C@H](CCN)NC(=O)[C@H](Cc2c[nH]c3ccccc23)NC(=O)[C@@H](CCN)NC(=O)[C@@H](CCN)NC(=O)[C@H](CCCN)NC(=O)[C@H](CCN)NC(=O)[C@H](Cc2ccc(O)cc2)NC(=O)[C@H](CO)NC1=O` [compound 155] (cyclo(LSY[Dab][Orn][dDab][dDab]W[Dab][Tle]AS[dP]P)), with 0%; and `COC[C@@H]1NC(=O)[C@H](Cc2c[nH]c3ccccc23)NC(=O)[C@@H]2CCCN2C(=O)[C@H]2CCCN2C(=O)[C@H](CO)NC(=O)[C@H](C)NC(=O)[C@H](C(C)(C)C)NC(=O)[C@H](CCN)NC(=O)[C@H](Cc2c[nH]c3ccccc23)NC(=O)[C@H](CCN)NC(=O)[C@@H](CCN)NC(=O)[C@H](CCCN)NC(=O)[C@H](CCN)NC(=O)[C@H](CC2CCCCC2)NC1=O` [compound 2] (cyclo(WS(Me)[Cha][Dab][Orn][dDab][Dab]W[Dab][Tle]AS[dP]P)), with 1.7%; and `CC(C)C[C@@H]1NC(=O)[C@@H]2CCCN2C(=O)[C@H]2CCCN2C(=O)[C@H](CO)NC(=O)[C@H](C)NC(=O)[C@H](C(C)(C)C)NC(=O)[C@H](CCN)NC(=O)[C@H](Cc2c[nH]c3ccccc23)NC(=O)[C@H](CCN)NC(=O)[C@@H](CCN)NC(=O)[C@H](CCN)NC(=O)[C@H](CCN)NC(=O)[C@H](Cc2ccc(O)cc2)NC(=O)[C@H](CO)NC1=O` [compound 96] (cyclo(LSY[Dab][Dab][dDab][Dab]W[Dab][Tle]AS[dP]P)), with 1%. As to `C[C@@H]1NC(=O)[C@H](Cc2c[nH]c3ccccc23)NC(=O)[C@@H]2CCCN2C(=O)[C@H]2CCCN2C(=O)[C@H](CO)NC(=O)[C@H](CNC(=N)N)NC(=O)[C@H](C(C)(C)C)NC(=O)[C@H](CCN)NC(=O)[C@H](Cc2c[nH]c3ccccc23)NC(=O)[C@H](CCN)NC(=O)[C@@H](CCN)NC(=O)[C@H](CCCN)NC(=O)[C@H](CCN)NC(=O)[C@H](CC2CCCCC2)NC1=O` [compound 23] (cyclo(WA[Cha][Dab][Orn][dDab][Dab]W[Dab][Tle][Agp]S[dP]P)), the “Hemolysis at 100 μg/ml” value came to 1.7%.

In the case of `CCC[C@@H]1NC(=O)[C@@H]2CCCN2C(=O)[C@H]2CCCN2C(=O)[C@H](CO)NC(=O)[C@H](C)NC(=O)[C@H](CC2CCCCC2)NC(=O)[C@H](CCN)NC(=O)[C@H](Cc2c[nH]c3ccccc23)NC(=O)[C@H](CCN)NC(=O)[C@@H](CCN)NC(=O)[C@H](CCCCN)NC(=O)[C@H](CCN)NC(=O)[C@H](C(C)(C)C)NC(=O)[C@H](CO)NC1=O` [compound 139] (cyclo([Nva]S[Tle][Dab]K[dDab][Dab]W[Dab][Cha]AS[dP]P)), the “Hemolysis at 100 μg/ml” value turned out to be 5%.

Source of the values: patent US9938322B2, “β-hairpin peptidomimetics” (priority 2013, dated 2018).
